Data reported in patent publication US10676468B2, “N-(3-heteroarylaryl)-4-arylarylcarboxamides and analogs as hedgehog pathway inhibitors and use thereof” (IMPACT Therapeutics, Inc., priority 2012, dated 2020).
Where a name gives a salt, the structure may show the parent alone.

How the values were obtained:
Type in all cases: cell-based, mouse
[1] = system: Hedgehog Signaling Pathway; assay: SHH-induced differentiation of C3H10T1/2 cells into osteoblastic cells, intracellular alkaline phosphatase activity; settings: 10 nM SHH-N, 5 days, alkaline phosphatase activity (OD405), read-out: IC50 values of compounds that inhibit Hh pathway
In short: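 Mouse C3H10T1/2 cells were induced with 10 nM SHH-N alongside test compound (10 μM–10 nM) for 5 days at 37 °C. Cells were lysed in 0.2% Triton, and alkaline phosphatase activity was read at OD405 over 30 min at 37 °C with the background reading subtracted. IC50 came from a nonlinear fit against log concentration.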

[2] = system: Hedgehog Signaling Pathway; assay: SAG-induced differentiation of C3H10T1/2 cells into osteoblastic cells, intracellular alkaline phosphatase activity; settings: 1 μM SAG, 5 days, alkaline phosphatase activity (OD405), read-out: IC50 values of compounds that inhibit Hh pathway
In short: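 Mouse C3H10T1/2 cells were induced with SAG and exposed to compound (10 μM to 1 nM) for 5 days at 37 °C. Cells were lysed in 0.2% Triton, and alkaline phosphatase activity was read as OD405 over 30 min at 37 °C in pH 9.8 substrate buffer. IC50 came from a non-linear fit of background-subtracted OD405 against log concentration.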

[3] = system: Hedgehog Signaling Pathway; assay: Gli-Luc reporter gene cell assay in C3H10T1/2/Gli-Luc cells stimulated with Shh; settings: 30 nM Shh, luciferase activity (RLU), read-out: IC50 values of compounds that inhibit Hh pathway
In short: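 C3H10T1/2 cells stably carrying Gli-responsive luciferase were seeded overnight, then treated 24 h at 37 °C with compound (7-point dilution series, DMSO control) plus Shh (30 nM in added medium). Lysate luciferase RLU fitted against log concentration to derive IC50.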

[4] = Mus musculus, C3H 10T1/2, 120 h

Compound | IC50 [1, 4] [nM] | IC50 [2, 4] [nM] | IC50 ([3]; Mus musculus, C3H 10T1/2, 24 h) [nM] | IC50 ([1]; Dihydrochloride) [nM] | IC50 ([2]; Dihydrochloride) [nM] | IC50 ([3]; 24 hours, Dihydrochloride) [nM]
C[C@@H]1CN(c2ccc(C(=O)Nc3ccc(Cl)c(-c4nc5ccccc5[nH]4)c3)cc2Cl)C[C@H](C)N1C [Example 120, N-(3-(1H-benzo[d]imidazol-2-yl)-4-chlorophenyl)-3-chloro-4-((3S,5R)-3,4,5-trimethylpiperazin-1-yl)benzamide] | 7.4 | 57 | 1.7 |  |  | 
Cc1cc(C(=O)Nc2ccc(Cl)c(-c3nc4ccccc4[nH]3)c2)ccc1N1C[C@@H](C)N(C)[C@@H](C)C1 [Example 121, N-(3-(1H-benzo[d]imidazol-2-yl)-4-chlorophenyl)-3-methyl-4-((3S,5R)-3,4,5-trimethylpiperazin-1-yl)benzamide] | 23 | 29 | 1.6 |  |  | 
Cc1c(C(=O)Nc2ccc(Cl)c(-c3nc4ccccc4[nH]3)c2)ccc(N2C[C@@H](C)N(C)[C@@H](C)C2)c1F [Example 122, N-(3-(1H-benzo[d]imidazol-2-yl)-4-chlorophenyl)-2-methyl-3-fluoro-4-((3S,5R)-3,4,5-trimethylpiperazin-1-yl)benzamide] | 0.52 | 29 | 0.39 |  |  | 
C[C@@H]1CN(c2cc(Cl)c(C(=O)Nc3ccc(Cl)c(-c4nc5ccccc5[nH]4)c3)cc2F)C[C@H](C)N1C [Example 123, N-(3-(1H-benzo[d]imidazol-2-yl)-4-chlorophenyl)-2-chloro-5-fluoro-4-((3S,5R)-3,4,5-trimethylpiperazin-1-yl)benzamide] | 0.97 | 53 | 0.39 |  |  | 
CCN1[C@H](C)CN(c2ccc(C(=O)Nc3ccc(Cl)c(-c4nc5ccccc5[nH]4)c3)c(Cl)c2)C[C@@H]1C [Example 124, N-(3-(1H-benzo[d]imidazol-2-yl)-4-chlorophenyl)-2-chloro-4-((3S,5R)-4-ethyl-3,5-dimethylpiperazin-1-yl)benzamide] | 0.49 | 38 | 0.8 |  |  | 
CC(C)N1[C@H](C)CN(c2ccc(C(=O)Nc3ccc(Cl)c(-c4nc5ccccc5[nH]4)c3)c(Cl)c2)C[C@@H]1C [Example 125, N-(3-(1H-benzo[d]imidazol-2-yl)-4-chlorophenyl)-2-chloro-4-((3S,5R)-4-isopropyl-3,5-dimethylpiperazin-1-yl)benzamide] | 1.2 | 23 | 0.57 |  |  | 
C[C@H]1CN(c2ccc(C(=O)Nc3ccc(Cl)c(-c4nc5ccccc5[nH]4)c3)c(Cl)c2)CCN1C [Example 126, (S)—N-(3-(1H-benzo[d]imidazol-2-yl)-4-chlorophenyl)-2-chloro-4-(3,4-dimethylpiperazin-1-yl)benzamide] | 25 | 81 | 2.3 |  |  | 
C[C@@H]1CN(c2ccc(C(=O)Nc3cnc(Cl)c(-c4nc5ccccc5[nH]4)c3)c(Cl)c2)C[C@H](C)N1C [Example 127, N-(5-(1H-benzo[d]imidazol-2-yl)-6-chloropyridin-3-yl)-2-chloro-4-((3S,5R)-3,4,5-trimethylpiperazin-1-yl)benzamide] | 1.1 | 34 | 1.1 |  |  | 
C[C@@H]1CN(c2ccc(C(=O)Nc3cnc(Cl)c(-c4nc5ccccc5[nH]4)c3)c(Cl)c2)C[C@H](C)O1 [Example 128, N-(5-(1H-benzo[d]imidazol-2-yl)-6-chloropyridin-3-yl)-2-chloro-4-((2S,6R)-2,6-dimethylmorpholino)benzamide] | 5.3 | 60 | 5.2 |  |  | 
C[C@@H]1CN(c2ccc(C(=O)Nc3cnc(Cl)c(-c4nc5ccc(F)cc5[nH]4)c3)c(Cl)c2)C[C@H](C)N1C [Example 129, N-(5-(6-fluoro-1H-benzo[d]imidazol-2-yl)-6-chloropyridin-3-yl)-2-chloro-4-((3S,5R)-3,4,5-trimethylpiperazin-1-yl)benzamide] | 7.5 | 82 | 4 |  |  | 
C[C@@H]1CN(c2ccc(C(=O)Nc3cnc(Cl)c(-c4nc5ccc(Cl)cc5[nH]4)c3)c(Cl)c2)C[C@H](C)N1C [Example 130, N-(5-(6-chloro-1H-benzo[d]imidazol-2-yl)-6-chloropyridin-3-yl)-2-chloro-4-((3S,5R)-3,4,5-trimethylpiperazin-1-yl)benzamide] | 18 | 178 | 8.5 |  |  | 
C[C@@H]1CN(c2ccc(C(=O)Nc3ccc(Cl)c(-c4nc5ccccc5[nH]4)c3)c(Cl)c2)C[C@H](C)N1C [Example 132, N-(3-(1H-benzo[d]imidazol-2-yl)-4-chlorophenyl)-2-chloro-4-((3S,5R)-3,4,5-trimethylpiperazin-1-yl)benzamide Dihydrochloride] |  |  |  | 0.53 | 28 | 0.74
C[C@@H]1CN(c2ccc(C(=O)Nc3ccc(Cl)c(-c4nc5ccccc5[nH]4)c3)cc2Cl)C[C@H](C)N1C [Example 133, N-(3-(1H-benzo[d]imidazol-2-yl)-4-chlorophenyl)-3-chloro-4-((3S,5R)-3,4,5-trimethylpiperazin-1-yl)benzamide Dihydrochloride] |  |  |  | 6.3 | 54 | 1.6
Cc1csc(-c2cnc(-c3cc(NC(=O)c4ccc(N5C[C@@H](C)N(C)[C@@H](C)C5)cc4C)ccc3Cl)[nH]2)c1 [Example 135, N-(3-(5-(4-methylthiophen-2-yl)-1H-imidazol-2-yl)-4-chlorophenyl)-2-methyl-4-((3S,5R)-3,4,5-trimethylpiperazin-1-yl)benzamide] | 1.5 | 67 | 1.2 |  |  | 
Cc1csc(-c2cnc(-c3cc(NC(=O)c4ccc(N5C[C@@H](C)N(C)[C@@H](C)C5)cc4Cl)ccc3Cl)[nH]2)c1 [Example 136, N-(3-(5-(4-methylthiophen-2-yl)-1H-imidazol-2-yl)-4-chlorophenyl)-2-chloro-4-((3S,5R)-3,4,5-trimethylpiperazin-1-yl)benzamide] | 4 | 9.2 | 0.97 |  |  | 
C[C@@H]1CN(c2ccc(C(=O)Nc3ccc(Cl)c(-c4ncc(-c5ccc(Cl)s5)[nH]4)c3)cc2Cl)C[C@H](C)N1C [Example 137, N-(3-(5-(5-chlorothiophen-2-yl)-1H-imidazol-2-yl)-4-chlorophenyl)-3-chloro-4-((3S,5R)-3,4,5-trimethylpiperazin-1-yl)benzamide] | 15 | 51 | 2.3 |  |  | 
C[C@@H]1CN(c2ccc(C(=O)Nc3ccc(Cl)c(-c4ncc(-c5ccc(Cl)s5)[nH]4)c3)c(Cl)c2)C[C@H](C)N1C [Example 138, N-(3-(5-(5-chlorothiophen-2-yl)-1H-imidazol-2-yl)-4-chlorophenyl)-2-chloro-4-((3S,5R)-3,4,5-trimethylpiperazin-1-yl)benzamide] | 1.6 | 39 | 0.58 |  |  | 
Cc1cc(N2C[C@@H](C)N(C)[C@@H](C)C2)ccc1C(=O)Nc1ccc(Cl)c(-c2ncc(-c3ccsc3)[nH]2)c1 [Example 139, N-(3-(5-(thiophen-3-yl)-1H-imidazol-2-yl)-4-chlorophenyl)-2-methyl-4-((3S,5R)-3,4,5-trimethylpiperazin-1-yl)benzamide] | 1.8 | 44 | 1.1 |  |  | 
C[C@@H]1CN(c2ccc(C(=O)Nc3ccc(Cl)c(-c4ncc(-c5ccsc5)[nH]4)c3)c(Cl)c2)C[C@H](C)N1C [Example 140, N-(3-(5-(thiophen-3-yl)-1H-imidazol-2-yl)-4-chlorophenyl)-2-chloro-4-((3S,5R)-3,4,5-trimethylpiperazin-1-yl)benzamide] | 0.2 | 4.8 | 0.21 |  |  | 
